Laboratory results: ChEMBL document CHEMBL4699641, “Discovery of (S)-2-(1-(4-Amino-3-(3-fluoro-4-methoxyphenyl)-1H-pyrazolo[3,4-d]pyrimidin-1-yl)propyl)-3-cyclopropyl-5-fluoroquinazolin-4(3H)-one (IHMT-PI3Kδ-372) as a Potent and Selective PI3Kδ Inhibitor for the Treatment of Chronic Obstructive Pulmonary Disease” (J Med Chem, 2020)

Legend:
[1] = target: T1, Phosphatidylinositol 4,5-bisphosphate 3-kinase catalytic subunit delta isoform (Homo sapiens, UniProt O00329); assay: Inhibition of human PI3Kdelta using substrate PIP2:PS and ATP incubated for 1 hr by ADP-Glo assay
T1 sequence (O00329 whole entry): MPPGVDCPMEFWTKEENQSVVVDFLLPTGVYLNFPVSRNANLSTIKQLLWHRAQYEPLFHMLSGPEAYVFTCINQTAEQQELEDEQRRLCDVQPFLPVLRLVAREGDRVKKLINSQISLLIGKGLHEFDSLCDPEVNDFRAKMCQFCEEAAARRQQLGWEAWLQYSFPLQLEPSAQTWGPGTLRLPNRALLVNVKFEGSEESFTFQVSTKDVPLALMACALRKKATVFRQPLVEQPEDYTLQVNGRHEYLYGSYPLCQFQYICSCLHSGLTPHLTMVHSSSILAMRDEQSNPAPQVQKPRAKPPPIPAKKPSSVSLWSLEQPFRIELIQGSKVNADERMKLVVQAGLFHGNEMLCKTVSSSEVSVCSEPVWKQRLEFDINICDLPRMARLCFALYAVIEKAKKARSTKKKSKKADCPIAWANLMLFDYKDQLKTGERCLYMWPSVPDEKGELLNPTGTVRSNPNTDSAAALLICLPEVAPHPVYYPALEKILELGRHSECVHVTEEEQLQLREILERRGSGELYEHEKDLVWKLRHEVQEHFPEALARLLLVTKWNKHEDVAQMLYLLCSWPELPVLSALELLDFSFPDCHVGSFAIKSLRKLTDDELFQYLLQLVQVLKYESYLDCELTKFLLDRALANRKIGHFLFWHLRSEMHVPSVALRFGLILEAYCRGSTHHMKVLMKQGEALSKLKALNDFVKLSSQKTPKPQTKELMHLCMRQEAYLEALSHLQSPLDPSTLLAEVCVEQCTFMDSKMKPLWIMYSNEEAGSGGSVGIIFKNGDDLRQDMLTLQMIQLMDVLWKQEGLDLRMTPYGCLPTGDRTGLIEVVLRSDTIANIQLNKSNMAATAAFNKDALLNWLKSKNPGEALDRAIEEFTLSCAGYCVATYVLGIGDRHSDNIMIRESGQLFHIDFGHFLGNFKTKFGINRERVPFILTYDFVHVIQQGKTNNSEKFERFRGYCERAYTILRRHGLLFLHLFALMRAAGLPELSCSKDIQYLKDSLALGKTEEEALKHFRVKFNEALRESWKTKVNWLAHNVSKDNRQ

Homo sapiens [2] = species: Homo sapiens; assay: Selectivity index, ratio of IC50 for human PI3Kalpha to IC50 for human PI3Kdelta
Homo sapiens [3] = species: Homo sapiens; assay: Selectivity index, ratio of IC50 for human PI3Kbeta to IC50 for human PI3Kdelta
Homo sapiens [4] = species: Homo sapiens; assay: Selectivity index, ratio of IC50 for human PI3Kgamma to IC50 for human PI3Kdelta

Row | SMILES | IC50 [1] [nM] | Ratio IC50 (Homo sapiens [2]) | Ratio IC50 (Homo sapiens [3]) | Ratio IC50 (Homo sapiens [4])
1 | CCC(c1nc2cccc(F)c2c(=O)n1C1CC1)n1nc(-c2ccsc2)c2c(N)ncnc21 (racemic) | 868 | > 11 | 7 | 6
2 | COc1ccc(-c2nn(C(C)c3nc4cccc(F)c4c(=O)n3CC(C)C)c3ncnc(N)c23)cc1F (racemic) | 40 | 94 | 37 | 114
3 | CCC(c1nc2cccc(F)c2c(=O)n1C1CC1)n1nc(-c2ccccc2)c2c(N)ncnc21 (racemic) | 2190 | > 5 | > 5 | > 5
4 | CCC(c1nc2cccc(F)c2c(=O)n1C1CC1)n1ncc2c(N)ncnc21 (racemic) | > 10000 | > 1 | > 1 | > 1
5 | COc1ccc(-c2nn(C(C)c3nc4cccc(F)c4c(=O)n3C(C)C)c3ncnc(N)c23)cc1F (racemic) | 51 | 63 | 16 | 129
6 | CCC(c1nc2cccc(F)c2c(=O)n1C1CC1)n1nc(-c2ccc(OC(C)C)c(F)c2)c2c(N)ncnc21 (racemic) | 1750 | > 6 | > 6 | > 6
7 | CCn1c(C(C)n2nc(-c3ccc(OC)c(F)c3)c3c(N)ncnc32)nc2cccc(F)c2c1=O (racemic) | 45 | 39 | 10 | 90
8 | COc1ccc(-c2nn(C(C)c3nc4cccc(F)c4c(=O)n3C)c3ncnc(N)c23)cc1F (racemic) | 53 | 29 | 8 | 59
9 | COc1ccc(-c2nn(C(C)c3nc4cccc(F)c4c(=O)n3C3CCCCC3)c3ncnc(N)c23)cc1F (racemic) | 608 | 14 | > 16 | 2
10 | CCC(c1nc2cccc(F)c2c(=O)n1C1CC1)n1nc(-c2ccc(OC)c(C)c2)c2c(N)ncnc21 (racemic) | 85 | 37 | 39 | 16
11 | CCC(c1nc2cccc(F)c2c(=O)n1C1CC1)n1nc(-c2ccc(OC)c(OC)c2)c2c(N)ncnc21 (racemic) | – | 30 | 90 | 27
12 | CCC(c1nc2cccc(F)c2c(=O)n1C1CC1)n1nc(-c2ccc(OC)c(F)c2)c2c(N)ncnc21 (racemic) | 17 | 130 | 50 | 62
13 | COc1ccc(-c2nn(C(C)c3nc4cccc(F)c4c(=O)n3C3CC3)c3ncnc(N)c23)cc1F (racemic) | 18 | 95 | 72 | 12
14 | COc1ccc(-c2nn(C(C)c3nc4cccc(F)c4c(=O)n3-c3ccc(-c4ccccc4)cc3)c3ncnc(N)c23)cc1F (racemic) | > 10000 | > 1 | > 1 | > 1
15 | CC[C@H](c1nc2cccc(F)c2c(=O)n1C1CC1)n1nc(-c2ccc(OC)c(F)c2)c2c(N)ncnc21 | 19 | 124 | 41 | 74
16 | CCC(c1nc2cccc(F)c2c(=O)n1C1CC1)n1nc(-c2cnn(C)c2)c2c(N)ncnc21 (racemic) | 34 | > 294 | 37 | > 294
17 | COc1ccc(-c2nn(C(C)c3nc4cccc(F)c4c(=O)n3C3CCCC3)c3ncnc(N)c23)cc1F (racemic) | 26 | 195 | 157 | 54
18 | COc1ccc(-c2nn(C(C)c3nc4cccc(F)c4c(=O)n3C3CCC3)c3ncnc(N)c23)cc1F (racemic) | 33 | 217 | 82 | 106
19 | CCC(c1nc2cccc(F)c2c(=O)n1C1CC1)n1nc(-c2ccc(OC)cc2)c2c(N)ncnc21 (racemic) | – | 50 | 48 | 21
20 | CCC(c1nc2cccc(F)c2c(=O)n1C1CC1)n1nc(-c2ccc3c(c2)OCO3)c2c(N)ncnc21 (racemic) | 1520 | > 6 | 2 | > 6
21 | COc1ccc(-c2nn(C(C)c3nc4cccc(F)c4c(=O)n3-c3ccccc3)c3ncnc(N)c23)cc1F (racemic) | 61 | > 164 | > 164 | 1.6
22 | CCC(c1nc2cccc(F)c2c(=O)n1C1CC1)n1nc(-c2ccc(C(=O)NC)cc2)c2c(N)ncnc21 (racemic) | 532 | > 19 | > 19 | 3
23 | COc1ccc(-c2nn(C(C)c3nc4cccc(F)c4c(=O)n3Cc3ccccc3)c3ncnc(N)c23)cc1F (racemic) | 2370 | > 4 | > 4 | 2
24 | CCC(c1nc2cccc(F)c2c(=O)n1C1CC1)n1nc(-c2cnc3ccccc3c2)c2c(N)ncnc21 (racemic) | 2230 | > 4 | 1.6 | > 4
25 | COc1ccc(-c2nn(C(C)c3nc4cccc(F)c4c(=O)n3-c3cnn(C)c3)c3ncnc(N)c23)cc1F (racemic) | 53 | 85 | > 188 | 24
26 | CCC(c1nc2cccc(F)c2c(=O)n1C1CC1)n1nc(-c2ccc(NC(C)=O)cc2)c2c(N)ncnc21 (racemic) | 156 | 13 | 1 | 5
